Results taken from patent US11845752B2, “Substituted imidazo[1,5-a]pyrazines for the treatment of hepatitis B” (ALIGOS THERAPEUTICS, INC., priority 2020, dated 2023).

Test system: HBV
Assay: HBV-DNA antiviral assay using HepG2.117 cells (intracellular HBV DNA by qPCR)
Assay type: cell-based, HBV genotype D
Conditions: Hepatitis B virus, HepG2.117, 72 h, HBV DNA inhibition, 3 days incubation, read-out: EC50
Protocol: The following assay procedure describes the HBV antiviral assay, using HepG2.117 cells, which carry a stably integrated genotype D HBV genome under the control of a Tet-off promoter, and intracellular HBV DNA quantification as endpoint. Cell viability is assessed in parallel by measuring the intracellular ATP content using ATPlite (Perkin Elmer).
On day 0, HepG2.117 cells (which are maintained in routine cell culture with doxycycline present in the medium at a final concentration of 1 μg/mL) were seeded in 96-well plates (white with clear bottom) at a density of 2.0×10^4 cells/well (0.1 mL/well) in medium without doxycycline to induce pgRNA transcription and subsequent formation of HBV particles. The cells were incubated at 37° C. and 5% CO2.
On day 1, medium was removed from each well, the test articles were diluted in culture medium without doxcycyline and 100 μL was added to cell culture wells (9 concentrations, 4-fold dilution). For each plate, 6 untreated (merely DMSO) wells were included. The final concentration of DMSO in the culture medium was 2%. Each plate was prepared in duplicate (one for HBV DNA extraction, one for ATPlite measurement). The cells were incubated at 37° C. and 5% CO2 for 3 days.
On day 4, cell viability was assessed using ATPlite and cell lysates were prepared for HBV DNA extraction and subsequent quantification by qPCR.
Medium was removed from each well and 100 μL of 0.33% NP-40 in H2O was added to each well. Plates were sealed, incubated at 4° C. for 5 mins, vortexed extensively and centrifuged briefly. Next, 35 μL of lysate was added to 65 μL QuickExtract DNA Extraction Solution (Epicentre) in a PCR plate for each well. PCR plate was incubated at 65° C. for 6 mins, 98° C. for 2 mins and finally cooled to 4° C. HBV DNA was then quantified by qPCR with HBV-specific primers and probes as specified in Table 1 using the Bio-Rad SSOAdvanced Universal Probes Supermix on a CFX96 machine (Bio-Rad). The PCR cycle program consisted of 95° C. for 3 mins, followed by 40 cycles at 95° C. for 10 sec and 60° C. for 30 sec.
A DNA standard was prepared by dilution of an IDT gBlock corresponding to the amplicon with concentrations ranging from 10^2 to 10^8 copies/input (i.e. per 4 μL) and used to generate a standard curve by plotting Cq values vs. HBV DNA standard concentration. The quantity of HBV DNA in each sample was determined by interpolating from the standard curve.
Cell viability was calculated as follows: % Cell viability=(luminescence value of test sample)/(average luminescence value of 2% DMSO control)×100%. HBV DNA inhibition was calculated as follows: 100−(HBV DNA copy number of test sample)/(average HBV DNA copy number of 2% DMSO control)×100%. No normalization to entecavir was required due to the excellent dynamic window of this assay. The CC50, EC50 and EC90 values were determined by dose-response curves fitted using non-linear regression.

Compound | EC50 [nM]
CC1Cn2c(c(C(=O)NCc3ccccc3-c3ccncn3)n(-c3ccc(N4CCO[C@H](C(F)(F)F)C4)cc3)c2=O)CN1C(=O)c1ccc(Br)c(C(F)(F)F)c1 (mixture of isomers) [Compound 52a, rac-(6S)-7-[4-bromo-3-(trifluoromethyl)benzoyl]-6-methyl-3-oxo-N-[(2-pyrimidin-4-ylphenyl)methyl]-2-[4-[(2S)-2-(trifluoromethyl)morpholin-4-yl]phenyl]-6,8-dihydro-5H-imidazo[1,5-a]pyrazine-1-carboxamide] | 50 to 500
CC1Cn2c(c(C(=O)NCc3ccccc3-c3ccncn3)n(-c3ccc(N4CCO[C@H](C(F)(F)F)C4)cc3)c2=O)CN1C(=O)c1ccc(Br)c(C(F)(F)F)c1 (mixture of isomers) [Compound 52b, rac-(6R)-7-[4-bromo-3-(trifluoromethyl)benzoyl]-6-methyl-3-oxo-N-[(2-pyrimidin-4-ylphenyl)methyl]-2-[4-[(2S)-2-(trifluoromethyl)morpholin-4-yl]phenyl]-6,8-dihydro-5H-imidazo[1,5-a]pyrazine-1-carboxamide] | < 50
C[C@H](O)COc1ccc(-n2c(C(=O)NCc3ccccc3-c3cccnn3)c3n(c2=O)C[C@H](C)N(C(=O)c2ccc(Br)c(C(F)(F)F)c2)C3)cc1 (mixture of isomers) [Compound 57b, (6SR)-7-[4-bromo-3-(trifluoromethyl)benzoyl]-2-[4-[(2S)-2-hydroxypropoxy]phenyl]-6-methyl-3-oxo-N-[(2-pyridazin-3-ylphenyl)methyl]-6,8-dihydro-5H-imidazo[1,5-a]pyrazine-1-carboxamide] | 50 to 500
C[C@H](O)COc1ccc(-n2c(C(=O)NCc3ccccc3-c3ccncn3)c3n(c2=O)C[C@@H](C)N(C(=O)c2ccc(Br)c(C(F)(F)F)c2)C3)cc1 (mixture of isomers) [Compound 58a, (6RS)-7-[4-bromo-3-(trifluoromethyl)benzoyl]-2-[4-[(2S)-2-hydroxypropoxy]phenyl]-6-methyl-3-oxo-N-[(2-pyrimidin-4-ylphenyl)methyl]-6,8-dihydro-5H-imidazo[1,5-a]pyrazine-1-carboxamide] | 50 to 500
C[C@H](O)COc1ccc(-n2c(C(=O)NCc3ccccc3-c3ccncn3)c3n(c2=O)C[C@H](C)N(C(=O)c2ccc(Br)c(C(F)(F)F)c2)C3)cc1 (mixture of isomers) [Compound 58b, (6SR)-7-[4-bromo-3-(trifluoromethyl)benzoyl]-2-[4-[(2S)-2-hydroxypropoxy]phenyl]-6-methyl-3-oxo-N-[(2-pyrimidin-4-ylphenyl)methyl]-6,8-dihydro-5H-imidazo[1,5-a]pyrazine-1-carboxamide] | < 50
C[C@@H](O)COc1ccc(-n2c(C(=O)NCc3ccccc3-c3ccccn3)c3n(c2=O)C[C@H](C)N(C(=O)c2ccc(Br)c(C(F)(F)F)c2)C3)cc1 (mixture of isomers) [Compound 60b, (6SR)-7-[4-bromo-3-(trifluoromethyl)benzoyl]-2-[4-[(2R)-2-hydroxypropoxy]phenyl]-6-methyl-3-oxo-N-[[2-(2-pyridyl)phenyl]methyl]-6,8-dihydro-5H-imidazo[1,5-a]pyrazine-1-carboxamide] | < 50
C[C@H](O)COc1ccc(-n2c(C(=O)NCc3ccccc3-c3ccccn3)c3n(c2=O)C[C@@H](C)N(C(=O)c2ccc(Br)c(C(F)(F)F)c2)C3)cc1 (mixture of isomers) [Compound 61a, (6RS)-7-[4-bromo-3-(trifluoromethyl)benzoyl]-2-[4-[(2S)-2-hydroxypropoxy]phenyl]-6-methyl-3-oxo-N-[[2-(2-pyridyl)phenyl]methyl]-6,8-dihydro-5H-imidazo[1,5-a]pyrazine-1-carboxamide] | < 50
C[C@H](O)COc1ccc(-n2c(C(=O)NCc3ccccc3-c3ccccn3)c3n(c2=O)C[C@H](C)N(C(=O)c2ccc(Br)c(C(F)(F)F)c2)C3)cc1 (mixture of isomers) [Compound 61b, (6SR)-7-[4-bromo-3-(trifluoromethyl)benzoyl]-2-[4-[(2S)-2-hydroxypropoxy]phenyl]-6-methyl-3-oxo-N-[[2-(2-pyridyl)phenyl]methyl]-6,8-dihydro-5H-imidazo[1,5-a]pyrazine-1-carboxamide] | < 50
C[C@@H](O)COc1ccc(-n2c(C(=O)NCc3ccccc3-c3ncccn3)c3n(c2=O)C[C@H](C)N(C(=O)c2ccc(Br)c(C(F)(F)F)c2)C3)cc1 (mixture of isomers) [Compound 64b, (6SR)-7-[4-bromo-3-(trifluoromethyl)benzoyl]-2-[4-[(2R)-2-hydroxypropoxy]phenyl]-6-methyl-3-oxo-N-[(2-pyrimidin-2-ylphenyl)methyl]-6,8-dihydro-5H-imidazo[1,5-a]pyrazine-1-carboxamide] | 50 to 500
C[C@@H]1Cn2c(c(C(=O)NCc3ccccc3-c3cccnn3)n(-c3ccc(OC[C@@H](O)C(F)(F)F)cc3)c2=O)CN1C(=O)c1ccc(Br)c(C(F)(F)F)c1 (mixture of isomers) [Compound 66a, (6RS)-7-[4-bromo-3-(trifluoromethyl)benzoyl]-6-methyl-3-oxo-N-[(2-pyridazin-3-ylphenyl)methyl]-2-[4-[(2R)-3,3,3-trifluoro-2-hydroxy-propoxy]phenyl]-6,8-dihydro-5H-imidazo[1,5-a]pyrazine-1-carboxamide] | 50 to 500
C[C@H]1Cn2c(c(C(=O)NCc3ccccc3-c3cccnn3)n(-c3ccc(OC[C@@H](O)C(F)(F)F)cc3)c2=O)CN1C(=O)c1ccc(Br)c(C(F)(F)F)c1 (mixture of isomers) [Compound 66b, (6SR)-7-[4-bromo-3-(trifluoromethyl)benzoyl]-6-methyl-3-oxo-N-[(2-pyridazin-3-ylphenyl)methyl]-2-[4-[(2R)-3,3,3-trifluoro-2-hydroxy-propoxy]phenyl]-6,8-dihydro-5H-imidazo[1,5-a]pyrazine-1-carboxamide] | 50 to 500
C[C@@H]1Cn2c(c(C(=O)NCc3ccccc3-c3cccnn3)n(-c3ccc(OC[C@H](O)C(F)(F)F)cc3)c2=O)CN1C(=O)c1ccc(Br)c(C(F)(F)F)c1 (mixture of isomers) [Compound 67a, (6RS)-7-[4-bromo-3-(trifluoromethyl)benzoyl]-6-methyl-3-oxo-N-[(2-pyridazin-3-ylphenyl)methyl]-2-[4-[(2S)-3,3,3-trifluoro-2-hydroxy-propoxy]phenyl]-6,8-dihydro-5H-imidazo[1,5-a]pyrazine-1-carboxamide] | 50 to 500
C[C@H]1Cn2c(c(C(=O)NCc3ccccc3-c3cccnn3)n(-c3ccc(OC[C@H](O)C(F)(F)F)cc3)c2=O)CN1C(=O)c1ccc(Br)c(C(F)(F)F)c1 (mixture of isomers) [Compound 67b, (6SR)-7-[4-bromo-3-(trifluoromethyl)benzoyl]-6-methyl-3-oxo-N-[(2-pyridazin-3-ylphenyl)methyl]-2-[4-[(2S)-3,3,3-trifluoro-2-hydroxy-propoxy]phenyl]-6,8-dihydro-5H-imidazo[1,5-a]pyrazine-1-carboxamide] | < 50
C[C@H]1Cn2c(c(C(=O)NCc3ccccc3-c3ccccn3)n(-c3ccc(OC[C@@H](O)C(F)(F)F)cc3)c2=O)CN1C(=O)c1ccc(Br)c(C(F)(F)F)c1 (mixture of isomers) [Compound 68b, (6SR)-7-[4-bromo-3-(trifluoromethyl)benzoyl]-6-methyl-3-oxo-N-[[2-(2-pyridyl)phenyl]methyl]-2-[4-[(2R)-3,3,3-trifluoro-2-hydroxy-propoxy]phenyl]-6,8-dihydro-5H-imidazo[1,5-a]pyrazine-1-carboxamide] | < 50
C[C@H]1Cn2c(c(C(=O)NCc3ccccc3-c3ccccn3)n(-c3ccc(OC[C@H](O)C(F)(F)F)cc3)c2=O)CN1C(=O)c1ccc(Br)c(C(F)(F)F)c1 (mixture of isomers) [Compound 69b, (6SR)-7-[4-bromo-3-(trifluoromethyl)benzoyl]-6-methyl-3-oxo-N-[[2-(2-pyridyl)phenyl]methyl]-2-[4-[(2S)-3,3,3-trifluoro-2-hydroxy-propoxy]phenyl]-6,8-dihydro-5H-imidazo[1,5-a]pyrazine-1-carboxamide] | 50 to 500
